Test results published in US12685735B2 (Foghorn Therapeutics Inc., priority 2020, dated 2026).

Key:
BRM = BRM (Homo sapiens, UniProt P51531); test: ATPase catalytic activity assay of BRM (ADP-Glo); format: biochemical; details: for IC50: read-out: BRM IC50 (μM)*
In short: (§1)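 Luminescence from ADP formed by BRM or BRG-1 ATPase was detected after a two-step ADP-Glo workup at room temperature. The first step, removing unconsumed ATP, took 40 min; the second, converting ADP to ATP for luciferase, took 60 min.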

BRG-1 = BRG-1 (Homo sapiens, UniProt P51532); test: ATPase catalytic activity assay of BRG-1 (ADP-Glo); format: biochemical; details: ATPase catalytic activity, ADP-Glo; for IC50: read-out: BRG1 IC50 (μM)*; for Emax: read-out: BRG1 Max % Inhibition
In short: as §1

BRM, sequence (P51531 whole entry): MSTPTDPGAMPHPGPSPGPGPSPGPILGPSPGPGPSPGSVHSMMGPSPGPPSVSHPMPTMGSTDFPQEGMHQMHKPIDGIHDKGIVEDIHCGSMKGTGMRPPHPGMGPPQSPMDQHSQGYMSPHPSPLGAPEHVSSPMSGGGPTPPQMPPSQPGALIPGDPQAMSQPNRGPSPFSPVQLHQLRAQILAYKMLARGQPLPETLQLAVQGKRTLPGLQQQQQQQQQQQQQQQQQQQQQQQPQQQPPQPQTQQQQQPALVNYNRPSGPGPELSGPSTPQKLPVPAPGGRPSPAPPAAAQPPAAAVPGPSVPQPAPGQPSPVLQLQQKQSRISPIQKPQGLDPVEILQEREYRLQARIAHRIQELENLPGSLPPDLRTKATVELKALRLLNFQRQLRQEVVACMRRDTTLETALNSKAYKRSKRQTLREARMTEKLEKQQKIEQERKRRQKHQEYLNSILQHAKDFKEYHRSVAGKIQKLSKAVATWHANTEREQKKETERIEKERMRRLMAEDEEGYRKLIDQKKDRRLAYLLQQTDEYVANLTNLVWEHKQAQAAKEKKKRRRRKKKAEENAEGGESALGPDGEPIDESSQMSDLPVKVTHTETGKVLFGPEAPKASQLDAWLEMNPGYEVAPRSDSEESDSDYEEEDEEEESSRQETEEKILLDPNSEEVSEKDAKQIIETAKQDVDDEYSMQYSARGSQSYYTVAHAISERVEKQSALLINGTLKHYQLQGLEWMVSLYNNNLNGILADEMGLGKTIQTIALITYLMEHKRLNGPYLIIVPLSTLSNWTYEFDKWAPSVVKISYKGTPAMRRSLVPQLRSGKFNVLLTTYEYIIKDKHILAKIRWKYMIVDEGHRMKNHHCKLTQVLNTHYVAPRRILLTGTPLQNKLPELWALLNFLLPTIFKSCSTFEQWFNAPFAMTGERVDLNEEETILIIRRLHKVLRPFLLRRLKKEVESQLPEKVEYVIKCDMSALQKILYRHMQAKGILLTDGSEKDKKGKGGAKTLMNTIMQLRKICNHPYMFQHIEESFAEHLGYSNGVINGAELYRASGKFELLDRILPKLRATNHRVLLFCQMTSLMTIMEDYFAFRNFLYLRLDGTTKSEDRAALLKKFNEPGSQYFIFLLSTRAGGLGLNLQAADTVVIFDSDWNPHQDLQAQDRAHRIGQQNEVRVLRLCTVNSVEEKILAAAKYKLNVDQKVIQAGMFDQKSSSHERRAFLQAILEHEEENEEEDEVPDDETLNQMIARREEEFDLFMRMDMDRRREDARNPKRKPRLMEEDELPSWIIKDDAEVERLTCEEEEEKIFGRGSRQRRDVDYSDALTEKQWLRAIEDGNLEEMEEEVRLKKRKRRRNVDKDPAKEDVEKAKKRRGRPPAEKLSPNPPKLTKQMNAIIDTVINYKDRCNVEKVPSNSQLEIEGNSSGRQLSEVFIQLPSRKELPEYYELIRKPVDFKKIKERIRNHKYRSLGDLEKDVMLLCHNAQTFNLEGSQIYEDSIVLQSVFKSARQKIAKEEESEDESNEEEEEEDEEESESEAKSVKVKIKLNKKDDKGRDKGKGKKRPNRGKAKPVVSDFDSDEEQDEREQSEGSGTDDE
BRG-1, sequence (P51532 whole entry): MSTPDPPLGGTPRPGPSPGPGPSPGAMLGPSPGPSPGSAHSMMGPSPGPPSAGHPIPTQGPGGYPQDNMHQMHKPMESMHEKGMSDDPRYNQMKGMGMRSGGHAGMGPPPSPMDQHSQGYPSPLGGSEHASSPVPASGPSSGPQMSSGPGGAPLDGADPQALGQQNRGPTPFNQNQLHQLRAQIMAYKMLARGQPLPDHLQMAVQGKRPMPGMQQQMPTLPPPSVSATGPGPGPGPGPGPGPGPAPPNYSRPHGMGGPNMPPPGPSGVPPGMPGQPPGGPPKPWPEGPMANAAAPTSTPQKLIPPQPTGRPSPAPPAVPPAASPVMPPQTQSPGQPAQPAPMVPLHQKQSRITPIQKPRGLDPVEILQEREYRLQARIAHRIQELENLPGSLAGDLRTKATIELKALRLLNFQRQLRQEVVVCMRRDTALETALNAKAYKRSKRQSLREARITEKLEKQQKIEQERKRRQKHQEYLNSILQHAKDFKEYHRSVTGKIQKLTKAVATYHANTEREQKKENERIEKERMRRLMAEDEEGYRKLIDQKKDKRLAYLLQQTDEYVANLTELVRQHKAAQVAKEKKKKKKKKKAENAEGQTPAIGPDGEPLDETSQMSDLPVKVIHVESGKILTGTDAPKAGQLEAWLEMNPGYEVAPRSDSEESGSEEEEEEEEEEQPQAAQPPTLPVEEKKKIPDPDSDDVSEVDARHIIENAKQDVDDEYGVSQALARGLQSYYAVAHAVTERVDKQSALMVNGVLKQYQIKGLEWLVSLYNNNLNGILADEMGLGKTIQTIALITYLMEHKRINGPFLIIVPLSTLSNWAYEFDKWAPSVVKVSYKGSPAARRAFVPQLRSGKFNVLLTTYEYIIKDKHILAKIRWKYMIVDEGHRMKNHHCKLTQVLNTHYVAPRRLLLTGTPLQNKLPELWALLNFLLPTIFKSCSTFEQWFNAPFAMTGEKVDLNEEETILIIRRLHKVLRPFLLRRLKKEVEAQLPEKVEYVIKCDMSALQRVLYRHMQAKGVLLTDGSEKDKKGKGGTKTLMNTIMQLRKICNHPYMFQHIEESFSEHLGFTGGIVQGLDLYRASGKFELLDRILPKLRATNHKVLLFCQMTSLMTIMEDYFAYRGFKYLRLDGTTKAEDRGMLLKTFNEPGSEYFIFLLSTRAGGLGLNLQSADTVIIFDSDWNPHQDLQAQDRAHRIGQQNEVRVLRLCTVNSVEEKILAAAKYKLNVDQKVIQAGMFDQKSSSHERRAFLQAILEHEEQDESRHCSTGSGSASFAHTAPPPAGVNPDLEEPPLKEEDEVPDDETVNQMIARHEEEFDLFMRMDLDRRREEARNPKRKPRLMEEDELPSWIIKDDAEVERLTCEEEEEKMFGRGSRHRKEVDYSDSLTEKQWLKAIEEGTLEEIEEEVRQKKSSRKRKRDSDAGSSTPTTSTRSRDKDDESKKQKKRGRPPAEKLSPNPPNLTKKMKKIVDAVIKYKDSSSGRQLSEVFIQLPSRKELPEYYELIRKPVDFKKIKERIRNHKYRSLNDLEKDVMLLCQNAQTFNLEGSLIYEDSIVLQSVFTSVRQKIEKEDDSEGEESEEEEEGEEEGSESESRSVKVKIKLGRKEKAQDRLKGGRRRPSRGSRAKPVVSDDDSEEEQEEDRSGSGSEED

SMILES | BRM Max % Inhibition (BRM) [%] | IC50 (BRM) [µM] | IC50 (BRG-1) [µM] | Emax (BRG-1) [%]
COC(=O)N1CCC(c2csc(NC(=O)CNC(=O)c3ccc4c(c3)[C@](C)(F)COC4)n2)CC1 [Compound 281, methyl (S)-4-(2-(2-(4-fluoro-4-methylisochromane-6-carboxamido)acetamido)thiazol-4-yl)piperidine-1-carboxylate] | >90 | 0.1 to 1 | 1 to 5 | > 90
C[C@@H]1CN(c2cccc(-c3csc(NC(=O)CNC(=O)c4ccc5c(c4)[C@](C)(C#N)CCO5)n3)n2)C[C@H](C)O1 [Compound 153, (R)-4-cyano-N-(2-((4-(6-((cis)-2,6-dimethylmorpholino)pyridin-2-yl)thiazol-2-yl)amino)-2-oxoethyl)-4-methylchroman-6-carboxamide] | >95 | < 0.1 | < 0.1 | > 95
Cn1ccc(-c2cccc(-c3csc(NC(=O)CNC(=O)c4cccc(C(C)(C)CN)c4)n3)c2)n1 [Compound 69, 3-(1-amino-2-methylpropan-2-yl)-N-(2-((4-(3-(1-methyl-1H-pyrazol-3-yl)phenyl)thiazol-2-yl)amino)-2-oxoethyl)benzamide] | >70 | 0.1 to 1 | > 5 | > 30
CC1(CO)CCc2ccc(C(=O)NCC(=O)Nc3nc(-c4cccc(-c5cccc(C#N)c5)c4)cs3)cc21 (centres unmarked) [Compound 233, N-[2-[[4-[3-(3-cyanophenyl)phenyl]thiazol-2-yl]amino]-2-oxo-ethyl]-3-(hydroxymethyl)-3-methyl-indane-5-carboxamide] | >95 | < 0.1 | 0.1 to 1 | > 80
CC(C)(CO)c1cccc(C(=O)NCC(=O)Nc2nc(-c3cccc(C#N)c3)cs2)c1 [Compound 106] | >80 | 1 to 5 | 1 to 5 | > 30
Cc1cncc(-c2cccc(-c3csc(NC(=O)CNC(=O)c4ccc5c(c4)[C@@](C)(CO)CC5)n3)n2)n1 [Compound 164, (S)-3-(hydroxymethyl)-3-methyl-N-(2-((4-(6-(6-methylpyrazin-2-yl)pyridin-2-yl)thiazol-2-yl)amino)-2-oxoethyl)-2,3-dihydro-1H-indene-5-carboxamide] | >60 | 0.1 to 1 | > 5 | < 30
C[C@@]1(C#N)COCc2ccc(C(=O)NCC(=O)Nc3nc(-c4cc(F)c5c(c4)CCO5)cs3)cc21 [Compound 352, (R)-4-cyano-N-(2-((4-(7-fluoro-2,3-dihydrobenzofuran-5-yl)thiazol-2-yl)amino)-2-oxoethyl)-4-methylisochromane-6-carboxamide] | >95 | < 0.1 | < 0.1 | > 95
COc1cccc(-c2csc(NC(=O)CNC(=O)c3ccc4c(c3)[C@](C)(C#N)COC4)n2)c1 [Compound 401, (R)-4-cyano-N-(2-((4-(3-methoxyphenyl)thiazol-2-yl)amino)-2-oxoethyl)-4-methylisochromane-6-carboxamide] | >95 | < 0.1 | 0.1 to 1 | > 95
CC1CCN1c1cccc(-c2csc(NC(=O)CNC(=O)c3ccc4c(c3)[C@](C)(C#N)COC4)n2)c1 (stereo partly drawn) [Compound 351, (4R)-4-cyano-4-methyl-N-(2-((4-(3-(2-methylazetidin-1-yl)phenyl)thiazol-2-yl)amino)-2-oxoethyl)isochromane-6-carboxamide] | >95 | < 0.1 | < 0.1 | > 95
COc1cccc(-c2csc(NC(=O)CNC(=O)c3cc(OC)c4c(c3)[C@](C)(C#N)COC4)n2)c1 [Compound 335, (R)-4-cyano-8-methoxy-N-(2-((4-(3-methoxyphenyl)thiazol-2-yl)amino)-2-oxoethyl)-4-methylisochromane-6-carboxamide] | >90 | 0.1 to 1 | > 5 | > 90
CC(C)(CO)c1cccc(C(=O)NCC(=O)Nc2nc(-c3cccc(-c4ccncc4)c3)cs2)c1 [Compound 73, 3-(1-hydroxy-2-methylpropan-2-yl)-N-(2-oxo-2-((4-(3-(pyridin-4-yl)phenyl)thiazol-2-yl)amino)ethyl)benzamide] | >95 | < 0.1 | 0.1 to 1 | > 80
C[C@@]1(C#N)COCc2ccc(C(=O)NCC(=O)Nc3nc(-c4cccc(C5CCO5)c4)cs3)cc21 (stereo partly drawn) [Compound 371, (R)-4-cyano-4-methyl-N-(2-((4-(3-(oxetan-2-yl)phenyl)thiazol-2-yl)amino)-2-oxoethyl)isochromane-6-carboxamide] | >95 | < 0.1 | 0.1 to 1 | > 95
CC(C)S(=O)(=O)c1cccc(C(=O)NCC(=O)Nc2nc(-c3cccc(-c4cc(C#N)cc(C#N)c4)c3)cs2)c1 [Compound 21, N-(2-((4-(3′,5′-dicyano-[1,1′-biphenyl]-3-yl)thiazol-2-yl)amino)-2-oxoethyl)-3-(isopropylsulfonyl)benzamide] | >80 | 0.1 to 1 | 1 to 5 | > 70
CC(C)S(=O)(=O)c1cccc(C(=O)NCC(=O)Nc2nc(-c3cccc(-c4ccnc(CN(C)C)c4)c3)cs2)c1 [Compound 45, N-(2-((4-(3-(2-((dimethylamino)methyl)pyridin-4-yl)phenyl)thiazol-2-yl)amino)-2-oxoethyl)-3-(isopropylsulfonyl)benzamide] | >95 | < 0.1 | 1 to 5 | 
C[C@@]1(C#N)COCc2ccc(C(=O)NCC(=O)Nc3nc(-c4cccc(C56CCOCC5C6)c4)cs3)cc21 (stereo partly drawn) [Compound 305, (R)-N-(2-((4-(3-(3-oxabicyclo[4.1.0]heptan-6-yl)phenyl)thiazol-2-yl)amino)-2-oxoethyl)-4-cyano-4-methylisochromane-6-carboxamide] | >95 | < 0.1 | 0.1 to 1 | > 95
C[C@@H]1CN(c2cccc(-c3csc(NC(=O)CNC(=O)c4cnc5c(c4)[C@@](C)(C#N)CC5)n3)c2)C[C@H](C)O1 [Compound 253, (S)-5-cyano-N-(2-((4-(3-((cis)-2,6-dimethylmorpholino)phenyl)thiazol-2-yl)amino)-2-oxoethyl)-5-methyl-6,7-dihydro-5H-cyclopenta[b]pyridine-3-carboxamide] | >90 | 1 to 5 | 1 to 5 | > 50
C[C@@H]1CN(c2cccc(-c3csc(NC(=O)CNC(=O)c4cccc(C5(CO)CC5)c4)n3)n2)C[C@H](C)O1 [Compound 182, N-[2-[[4-[6-[(cis)-2,6-dimethylmorpholin-4-yl]-2-pyridyl]thiazol-2-yl]amino]-2-oxo-ethyl]-3-[1-(hydroxymethyl)cyclopropyl]benzamide] | >95 | < 0.1 | 0.1 to 1 | > 90
C[C@@H]1CN(c2cccc(-c3csc(NC(=O)CNC(=O)c4ccc5c(c4)[C@@](C)(C#N)CC5)n3)n2)C[C@H](C)O1 [Compound 262, (S)-3-cyano-N-(2-((4-(6-((cis)-2,6-dimethylmorpholino)pyridin-2-yl)thiazol-2-yl)amino)-2-oxoethyl)-3-methyl-2,3-dihydro-1H-indene-5-carboxamide] | >80 | 1 to 5 | 1 to 5 | > 50
